In experiment [1] the test system is PMA-induced release of HB-EGF from U-937 cells. The experiment is described as follows: ELISA-based HB-EGF release assay, PMA-stimulated U-937 cells. In kind it is cell-based. The following applies: Homo sapiens, murine (m) and chimeric (ch) antibodies 3 μg/ml, Batimastat 10 μM, PMA 25 ng/ml, 6 hours. Here is the method:
Complementary to Example 29 described above, ELISA-based HB-EGF release assays were performed to verify the inhibitory effects of the antibodies of the present disclosure on PMA-induced release of endogenous HB-EGF from human U-937 cells.
The production of the recombinant antibody material that was used in this example is identical to the one described in Example 25. The ELISA-based HB-EGF release assay that was used in this example is identical with the one described in Example 30, with the only difference, that U-937 (European Collection of Authenticated Cell Cultures, UK) cells were used instead of THP-1 (American Type Culture Collection, USA) cells.

The test system of experiment [2] is LPS-induced release of TNFα from PBMCs from healthy donors. Put plainly: ELISA-based TNFα release assay, PBMCs from healthy donors. The following applies: Homo sapiens, PBMC; recombinant murine antibodies 1 μg/ml; Batimastat 10 μM; LPS 50 ng/ml, 2 hours. The experiment is classed as cell-based. As for the experimental part:
In the following study, ELISA-based TNFα release assays were performed to analyze the inhibitory effects of the antibodies of the present disclosure on LPS-induced release of endogenous TNFα from primary human material obtained from healthy donors using peripheral blood mononuclear cells (PBMCs).
In brief, on day 1, Nunc black MaxiSorp® 96-well plates (Thermo Fisher Scientific, USA) were coated overnight with 100 μl per well of mouse anti-human TNFα capture antibody (provided as part of the DuoSet ELISA kit) at 4 μg/ml TBS at 4° C. On day 2, the capture antibody solution was removed and MaxiSorp® plates were blocked with 300 μl per well of TBS, 1% BSA at room temperature for 3 hours. […] Using an infinite M1000 (Tecan Group, Switzerland) microplate reader, the fluorescence of each well was collected at an excitation wavelength of 435 nm and an emission wavelength of 555 nm.

For one molecule, inhibition results are on record in US20240174744A1, “METHODS OF TREATMENT USING PROTEIN BINDERS TO IRHOM2 EPITOPES” (SCIRHOM GMBH, priority 2021, published 2024).

Regarding `CNC(=O)[C@H](Cc1ccccc1)NC(=O)[C@H](CC(C)C)[C@H](CSc1cccs1)C(=O)NO` [Batimastat], the inhibition at 10 µM is 100% in experiment [1] and 99.6% in experiment [2].
